Assay results taken from patent US20240197738A1, “COMPOUND 7AI IN TREATING EWING SARCOMA BY INHIBITING OTUD7A” (The University of North Carolina at Chapel Hill, priority 2021, published 2024).
Where a SMILES comes first, the peptide text is derived from it. The star is where a group is joined. Cbz = O=C(OCc1ccccc1)*

Tests used:
Format in all cases: cell-based, human
[1] = system: EWS-FLI1; test: Immunoblot of EWS-FLI1 protein abundance in cells; conditions: for SPOP-mediated decrease of ectopically expressed EWS-FLI1: HEK293T cells, 10 μM MG132 or 1 μM MLN4924 overnight (FIG. 1G)
[2] = system: EWS-FLI1 mRNA; test: RT-PCR of EWS-FLI1 mRNA levels
Method: Cells were isolated by dissociation with 0.05% Trypsin, followed by media quenching. The cells were spun down at 300×rcf for 5 minutes. The media was aspirated, the pellet was suspended with 1×PBS, and then the cells were spun down again. The PBS was aspirated. RNA extraction was performed with an RNA extraction kit (BioBasic BS584). The final elution step was done with 50 μL of RNAse-free water. The […] with the NanoDrop OneC (Thermo Fisher Scientific). Three biological replicates were performed for RNA extraction. Quartile analysis was done to exclude outliers and significance was determined by one-way ANOVA tests.

[3] = system: SPOP; test: Immunoblot of SPOP levels; conditions: D4476 treatment
Method: (§1) Cells were lysed in EBC buffer (50 mM Tris pH 7.5, 120 mM NaCl, 0.5% NP-40) or Triton X-100 buffer (50 mM Tris pH 7.5, 150 mM NaCl, 1% Triton X-100) supplemented with protease inhibitors (Complete Mini, Roche) and phosphatase inhibitors (phosphatase inhibitor cocktail set I and II, Calbiochem). The protein concentrations of whole cell lysates were measured by NanoDrop OneC using the Bio-Rad protein assay reagent as described previously. Equal amounts of whole cell lysates were resolved by SDS-PAGE and immunoblotted with indicated antibodies. For immunoprecipitations analysis, unless specified, 1000 μg lysates were incubated with the indicated antibody (1-2 μg) for 3-4 hr at 4° C. followed by 1 hr incubation with 10 μL Protein A magnetic beads (New England Biolabs). Or 1000 μg lysates containing tagged molecules were incubated with agarose beads coupled antibodies for the specific tag for 3-4 hr at 4° C. For endogenous IPs, incubation of cell lysates with antibodies was extended to overnight. The recovered immuno-complexes were washed five times with NETN buffer (20 mM Tris, pH 8.0, 100 mM NaCl, 1 mM EDTA and 0.5% NP-40) before being resolved by SDS-PAGE and immunoblotted with indicated antibodies.

[4] = system: EWS-FLI1 binding to SPOP; test: EWS-FLI1 binding to SPOP in cells; conditions: D4476 treatment
Method: as §1

Which results are given for `CC(C)C[C@@H](C=O)NC(=O)[C@H](CC(C)C)NC(=O)[C@H](CC(C)C)NC(=O)OCc1ccccc1` [MG132] (Cbz-Leu-Leu-Leu-aldehyde)?
3A-EWS-FLI1 mutant protein response ([1]; 3A-EWS-FLI1 (S464A/S465A/S466A), MG132 treatment): resistance to MG132 treatment; EWS-FLI1 protein abundance ([1]; A673 and SK-N-MC cells, 10 μM MG132 for 4 hrs): significantly increased EWS-FLI1 protein abundance; SPOP-mediated decrease of ectopically expressed EWS-FLI1 [1]: blocked; EWS-FLI1 protein levels following OTUD7A depletion ([1]; tet-induced OTUD7A depletion, MG132 treatment): largely preserved EWS-FLI1 protein levels

`Nc1cccc2c1CN(C1CCC(=O)NC1=O)C2=O` (centres unmarked) [lenalidomide] was tested. Which EWS-FLI1 protein abundance ([1]; MHH-ES-1 cells, lenalidomide for 16 hrs (FIG. 2I)) did it give?
Its EWS-FLI1 protein abundance is “increased EWS-FLI1 protein abundance”.

What about the “EWS-FLI1 mRNA levels” value ([2]; lenalidomide treatment) of the same compound?
Its value is “without affecting EWS-FLI1 mRNA levels”.

With `Cc1sc2c(c1C)C(c1ccc(Cl)cc1)=N[C@@H](CC(=O)OC(C)(C)C)c1nnc(C)n1-2` [JQ1] as the compound, how does the EWS-FLI1 protein abundance ([1]; MHH-ES-1 or A673 cells, JQ1 treatment) read?
Its EWS-FLI1 protein abundance is “didn't change EWS-FLI1 protein abundance”.

Which results are given for `NS(=O)(=O)OC[C@@H]1C[C@@H](n2ccc3c(N[C@H]4CCc5ccccc54)ncnc32)C[C@@H]1O` [MLN4924]?
EWS-FLI1 protein stabilization ([1]; A673 cells, 1 μM MLN4924 overnight): largely stabilized EWS-FLI1; SPOP-mediated decrease of ectopically expressed EWS-FLI1 [1]: blocked

With `NC(=O)c1ccc(-c2nc(-c3ccc4c(c3)OCCO4)c(-c3ccccn3)[nH]2)cc1` [D4476] as the compound, how does the EWS-FLI1 protein levels ([1]; A673^3A KI cells, D4476 for 16 hrs (FIG. 2P)) read?
The EWS-FLI1 protein levels was “not observed”.

And the EWS-FLI1 protein levels ([1]; A673 parental cells, D4476 for 16 hrs (FIG. 2O))?
The EWS-FLI1 protein levels was “Increased EWS-FLI1 protein levels”.

What about the EWS-FLI1 protein abundance ([1]; EWS502 cells (CUL3 E358Q), D4476 treatment) of the same compound?
Its EWS-FLI1 protein abundance is “neither D4476 treatment, nor SPOP depletion increased EWS-FLI1 protein abundance”.

What about the EWS-FLI1 protein accumulation ([1]; SK-N-MC, EWS894 and MHH-ES-1 cells, D4476 for 16 hrs (FIGS. 2B-2D)) of the same compound?
Its EWS-FLI1 protein accumulation is “resulted in the accumulation of EWS-FLI1 in multiple Ewing sarcoma cells”.

And the “effect on EWS-FLI1 levels in SPOP-depleted cells” value ([1]; endogenous SPOP-depleted A673 cells, D4476 for 16 hrs (FIG. 2H))?
The value was “attenuated”.

What about the “EWS-FLI1 mRNA levels” value ([2]; D4476 treatment) of the same compound?
The value was “without significantly affecting EWS-FLI1 mRNA levels”.

What about the SPOP levels [3] of the same compound?
The SPOP levels was “unaffected”.

What about the “EWS-FLI1 binding to SPOP” value [4] of the same compound?
The value was “reduced EWS-FLI1 binding to SPOP”.
